Positions count from the first letter of the chain named.

As usually defined, the Kd is the free concentration of one partner at which half of the binding sites on the other are occupied at equilibrium, for simple one-to-one binding. A lower Kd goes with a tighter complex.

Experiment in all cases: radioligand binding, gel filtration separation of bound and free ATP, saturation fit
The target of test [1] is T1, P2K2 extracellular lectin domain (LecRK-I.5), GST-tagged (Arabidopsis thaliana, UniProt Q9M1G4).
T1 construct: gene LECRK15; extracellular lectin domain (ectodomain), GST fusion, purified from E. coli BL21-AI
T1 sequence (Q9M1G4 23-286 limits assumed): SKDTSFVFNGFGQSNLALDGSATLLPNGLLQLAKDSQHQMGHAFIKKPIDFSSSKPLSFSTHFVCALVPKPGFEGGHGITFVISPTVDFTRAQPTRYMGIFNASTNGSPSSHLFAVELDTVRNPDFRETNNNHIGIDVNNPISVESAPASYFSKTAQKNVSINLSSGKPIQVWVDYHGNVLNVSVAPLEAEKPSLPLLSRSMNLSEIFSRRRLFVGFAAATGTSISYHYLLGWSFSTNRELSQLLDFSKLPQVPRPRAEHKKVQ

The target in test [2] is T2, P2K2 extracellular lectin domain (LecRK-I.5), GST-tagged (Arabidopsis thaliana, UniProt Q9M1G4, R144A).
T2 construct: gene LECRK15; extracellular lectin domain (ectodomain), GST fusion, purified from E. coli BL21-AI
T2 sequence (Q9M1G4 23-286 R144A limits assumed): T1 sequence (Q9M1G4 23-286 limits assumed) with R122A

In test [3] the target is T3, P2K2 extracellular lectin domain (LecRK-I.5), GST-tagged (Arabidopsis thaliana, UniProt Q9M1G4, H99A).
T3 construct: gene LECRK15; extracellular lectin domain (ectodomain), GST fusion, purified from E. coli BL21-AI
T3 sequence (Q9M1G4 23-286 H99A limits assumed): T1 sequence (Q9M1G4 23-286 limits assumed) with H77A

For test [4], the target named is T4, P2K2 extracellular lectin domain (LecRK-I.5), GST-tagged (Arabidopsis thaliana, UniProt Q9M1G4, T245A).
T4 construct: gene LECRK15; extracellular lectin domain (ectodomain), GST fusion, purified from E. coli BL21-AI
T4 sequence (Q9M1G4 23-286 T245A limits assumed): T1 sequence (Q9M1G4 23-286 limits assumed) with T223A

Test [5] has as its target T5, P2K2 extracellular lectin domain (LecRK-I.5), GST-tagged (Arabidopsis thaliana, UniProt Q9M1G4, S246A).
T5 construct: gene LECRK15; extracellular lectin domain (ectodomain), GST fusion, purified from E. coli BL21-AI
T5 sequence (Q9M1G4 23-286 S246A limits assumed): T1 sequence (Q9M1G4 23-286 limits assumed) with S224A

As to `Nc1ncnc2c1ncn2[C@@H]1O[C@H](COP(=O)(O)OP(=O)(O)OP(=O)(O)O)[C@@H](O)[C@H]1O` [ATP], the dissociation constant (Kd) in test [1] is 41.6 ± 13.8 nM; in test [2], 104 ± 25 nM; in test [3], > 1000 nM; in test [4], 41.7 ± 14.1 nM; in test [5], 109 ± 29.7 nM.
